# From patent publication US20230406865A1, “CRYSTAL FORM OF FREE BASE OF INHIBITOR CONTAINING BICYCLIC RING DERIVATIVE AND PREPARATION METHOD AND APPLICATION OF CRYSTAL FORM” (SHANGHAI HANSOH BIOMEDICAL CO., LTD., priority 2020, published 2023)
# How the values were obtained:
# [1] = target: T1, RET kinase (Homo sapiens, UniProt P07949); assay: HTRF kinase activity inhibition, RET wild-type; format: biochemical; conditions: ATP at Km
# T1 construct: purchased Carna 08-159
# Source text: 2.2 Experimental Reagents: • RET enzyme was purchased from Carna Company, and the article number was 08-159; • RET M918T enzyme was purchased from Carna Company, and the article number was 08-508; • KIF5B-RET was purchased from SignalChem Company, the article number was R02-19FG-05; • CCDC6-RET was purchased from SignalChem Company, the article number was R02-19BG-05; • RET V804M enzyme was purchased from Thermofisher Company, and the article number was PV6223; • RET V804L enzyme was purchased from Thermofisher Company, and the article number was PV4397; • HTRF KinEASE-TK kit was purchased from Cisbio Company, and the article number was 62TK0PEC; • ATP was purchased from Thermofisher Company, and the article number was PV3227; • 384-well plate was purchased from PerkinElmer Company, and the article number was 6007290.
# In this experiment, a homogeneous time-resolved fluorescence (HTRF) method was used for the detection of compounds on RET kinase activity.
# [2] = target: T2, KDR kinase (Homo sapiens, UniProt P35968); assay: HTRF kinase activity inhibition, KDR; format: biochemical; conditions: for IC50: HTRF, ATP at Km; for Ratio (KDR/RET): KDR IC50 / RET IC50
# T2 construct: purchased Carna 08-191
# Source text: 2.2 Experimental Reagents: • KDR kinase was purchased from Carna Company, and the article number was 08-191; • HTRF KinEASE-TK kit was purchased from Cisbio Company, and the article number was 62TK0PEC; • ATP was purchased from Thermofisher Company, and the article number was PV3227; • 384-well plate was purchased from PerkinElmer Company, and the article number was 6007290.
# In this experiment, the homogeneous time-resolved fluorescence (HTRF) method was used for the detection of compounds on KDR kinase activity.
# T2 sequence (P35968 20-1356): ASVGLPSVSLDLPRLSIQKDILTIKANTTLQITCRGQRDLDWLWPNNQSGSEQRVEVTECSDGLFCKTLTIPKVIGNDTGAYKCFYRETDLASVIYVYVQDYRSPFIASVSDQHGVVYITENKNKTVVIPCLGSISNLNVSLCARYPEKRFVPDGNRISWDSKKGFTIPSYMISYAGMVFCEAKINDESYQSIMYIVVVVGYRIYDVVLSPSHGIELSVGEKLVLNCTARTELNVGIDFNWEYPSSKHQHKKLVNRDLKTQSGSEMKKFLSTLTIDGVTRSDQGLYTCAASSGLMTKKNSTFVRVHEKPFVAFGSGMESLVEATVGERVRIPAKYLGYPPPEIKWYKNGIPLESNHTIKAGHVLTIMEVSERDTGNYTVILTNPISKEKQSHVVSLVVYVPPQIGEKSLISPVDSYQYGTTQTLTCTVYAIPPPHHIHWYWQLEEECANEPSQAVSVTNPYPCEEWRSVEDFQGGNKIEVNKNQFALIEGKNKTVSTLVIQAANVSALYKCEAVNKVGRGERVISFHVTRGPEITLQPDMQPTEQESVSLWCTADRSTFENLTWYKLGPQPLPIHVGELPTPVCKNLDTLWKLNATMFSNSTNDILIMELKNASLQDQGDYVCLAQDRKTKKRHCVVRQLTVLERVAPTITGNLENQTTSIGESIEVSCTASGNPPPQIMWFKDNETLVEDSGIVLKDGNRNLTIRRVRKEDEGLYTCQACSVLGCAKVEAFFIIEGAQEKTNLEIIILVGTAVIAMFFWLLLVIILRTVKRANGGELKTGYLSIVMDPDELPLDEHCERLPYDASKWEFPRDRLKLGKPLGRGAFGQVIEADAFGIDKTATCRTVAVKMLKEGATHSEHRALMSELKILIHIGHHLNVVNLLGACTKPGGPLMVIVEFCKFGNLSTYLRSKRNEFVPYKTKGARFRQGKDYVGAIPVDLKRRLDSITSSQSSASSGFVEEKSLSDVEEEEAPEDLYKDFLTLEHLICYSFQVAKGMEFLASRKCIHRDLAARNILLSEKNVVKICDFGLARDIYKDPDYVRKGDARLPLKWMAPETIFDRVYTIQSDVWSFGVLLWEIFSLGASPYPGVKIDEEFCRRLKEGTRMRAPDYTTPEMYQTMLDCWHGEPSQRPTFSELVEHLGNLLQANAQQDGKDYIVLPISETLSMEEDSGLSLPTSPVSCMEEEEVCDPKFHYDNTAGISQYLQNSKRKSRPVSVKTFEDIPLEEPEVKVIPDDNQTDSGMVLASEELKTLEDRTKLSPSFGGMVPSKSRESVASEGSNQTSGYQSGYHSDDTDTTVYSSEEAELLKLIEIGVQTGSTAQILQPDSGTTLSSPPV
# T1 sequence (P07949 29-1114): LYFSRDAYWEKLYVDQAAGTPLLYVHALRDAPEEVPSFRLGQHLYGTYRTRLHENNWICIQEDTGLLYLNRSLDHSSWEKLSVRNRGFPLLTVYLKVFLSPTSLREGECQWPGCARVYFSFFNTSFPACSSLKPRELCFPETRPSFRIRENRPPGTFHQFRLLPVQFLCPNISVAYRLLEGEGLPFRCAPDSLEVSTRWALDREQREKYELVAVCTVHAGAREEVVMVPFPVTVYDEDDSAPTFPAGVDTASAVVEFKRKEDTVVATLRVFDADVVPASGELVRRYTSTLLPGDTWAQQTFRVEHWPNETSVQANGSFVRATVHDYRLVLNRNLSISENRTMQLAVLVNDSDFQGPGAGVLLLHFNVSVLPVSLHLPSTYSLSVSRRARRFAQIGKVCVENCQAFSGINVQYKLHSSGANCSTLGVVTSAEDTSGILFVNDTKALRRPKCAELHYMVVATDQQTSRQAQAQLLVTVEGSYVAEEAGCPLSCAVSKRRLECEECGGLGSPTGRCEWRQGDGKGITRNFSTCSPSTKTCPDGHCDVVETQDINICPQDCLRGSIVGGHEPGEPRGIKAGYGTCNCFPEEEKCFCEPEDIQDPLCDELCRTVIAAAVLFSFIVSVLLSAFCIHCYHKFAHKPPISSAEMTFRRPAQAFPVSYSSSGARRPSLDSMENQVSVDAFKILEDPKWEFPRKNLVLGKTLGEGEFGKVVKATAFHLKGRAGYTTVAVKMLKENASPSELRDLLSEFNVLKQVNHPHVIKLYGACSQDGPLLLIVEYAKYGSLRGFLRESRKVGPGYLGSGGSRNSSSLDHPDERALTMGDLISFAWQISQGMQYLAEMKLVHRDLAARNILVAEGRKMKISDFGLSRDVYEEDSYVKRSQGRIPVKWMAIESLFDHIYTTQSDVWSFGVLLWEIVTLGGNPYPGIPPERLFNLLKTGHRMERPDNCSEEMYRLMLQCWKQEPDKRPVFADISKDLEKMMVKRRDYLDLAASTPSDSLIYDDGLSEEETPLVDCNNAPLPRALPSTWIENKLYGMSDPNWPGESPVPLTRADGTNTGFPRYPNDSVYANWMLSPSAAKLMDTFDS
SMILES,IC50 [1],IC50 [2],Ratio (KDR/RET) [2]
"COc1ccc(CN2C3CC2CN(c2ccc(-c4cc(OCCCS(C)(=N)=O)cn5ncc(C#N)c45)cn2)C3)cn1 (stereo not drawn) [Embodiment 6, 4-(6-(6-((6-Methoxypyridin-3-yl)methyl)-3,6-diazabicyclo[3.1.1]heptan-3-yl)pyridin-3-yl)-6-(3-(S-methylsulfonimidoyl)propoxy)pyrazolo[1,5-a]pyridine-3-carbonitrile]",0.79 nM,27.7 nM,35
"COc1ccc(CN2C3CC2CN(c2ccc(-c4cc(OCC5CS(=N)(=O)C5)cn5ncc(C#N)c45)cn2)C3)cn1 (stereo not drawn) [Embodiment 12, 6-((1-Imino-1-hydroxy-1l6-thietan-3-yl)methoxy)-4-(6-(6-((6-methoxypyridin-3-yl)methyl)-3,6-diazabicyclo[3.1.1]heptan-3-yl)pyridin-3-yl)pyrazolo[1,5-a]pyridine-3-carbonitrile]",1.3 nM,69 nM,55
"COc1ccc(CN2C3CC2CN(c2ccc(-c4cc(N5CC(C)(O)C5)cn5ncc(C#N)c45)cn2)C3)cn1 [Embodiment 33, 6-(3-Hydroxy-3-methylazetidin-1-yl)-4-(6-(6-((6-methoxypyridin-3-yl)methyl)-3,6-diazabicyclo[3.1.1]heptan-3-yl)pyridin-3-yl)pyrazolo[1,5-a]pyridine-3-carbonitrile]",0.4 nM,5.6 nM,14
"COc1ccc(CN2C3CC2CN(c2ccc(-c4cc(N5CCC(C)(O)C5)cn5ncc(C#N)c45)cn2)C3)cn1 (stereo not drawn) [Embodiment 34, 6-(3-Hydroxy-3-methylpyrrolidin-1-yl)-4-(6-(6-((6-methoxypyridin-3-yl)methyl)-3,6-diazabicyclo[3.1.1]heptan-3-yl)pyridin-3-yl)pyrazolo[1,5-a]pyridine-3-carbonitrile]",0.7 nM,4.7 nM,7
"COc1ccc(CN2C3CC2CN(c2ccc(-c4cc(N5CCC(C)(O)CC5)cn5ncc(C#N)c45)cn2)C3)cn1 [Embodiment 35, 6-(4-Hydroxy-4-methylpiperidin-1-yl)-4-(6-(6-((6-methoxypyridin-3-yl)methyl)-3,6-diazabicyclo[3.1.1]heptan-3-yl)pyridin-3-yl)pyrazolo[1,5-a]pyridine-3-carbonitrile]",0.49 nM,6.2 nM,13
"COc1ccc(CN2C3CC2CN(c2ccc(-c4cc(OCC5(C#N)COC5)cn5ncc(C#N)c45)cn2)C3)cn1 [Embodiment 37, 6-((3-Cyanooxetan-3-yl)methoxy)-4-(6-(6-((6-methoxypyridin-3-yl)methyl)-3,6-diazabicyclo[3.1.1]heptan-3-yl)pyridin-3-yl)pyrazolo[1,5-a]pyridine-3-carbonitrile]",0.71 nM,60.4 nM,85
"COc1ccc(CN2C3CC2CN(c2ccc(-c4cc(NC(=O)C(C)(C)O)cn5ncc(C#N)c45)cn2)C3)cn1 [Embodiment 42, N-(3-Cyano-4-(6-(6-((6-methoxypyridin-3-yl)methyl)-3,6-diazabicyclo[3.1.1]heptan-3-yl)pyridin-3-yl)pyrazolo[1,5-a]pyridin-6-yl)-2-hydroxy-2-methylpropanamide]",1.56 nM,105 nM,67
"COc1ccc(CN2C3CC2CN(c2ccc(-c4cc(OCC5(C#N)CC(F)(F)C5)cn5ncc(C#N)c45)cn2)C3)cn1 [Embodiment 57, 6-((1-Cyano-3,3-difluorocyclobutyl)methoxy)-4-(6-(6-((6-methoxypyridin-3-yl)methyl)-3,6-diazabicyclo[3.1.1]heptan-3-yl)pyridin-3-yl)pyrazolo[1,5-a]pyridine-3-carbonitrile]",1.1 nM,209 nM,187
